According to patent publication US20200102264A1, “MARMELIN ANALOGS AND METHODS OF USE IN CANCER TREATMENT” (THE UNIVERSITY OF KANSAS, priority 2014, published 2020):
Entries after “also recorded” stand apart in the source; their conditions may differ.

Experiments:
[1] = test system: DCLK1+ HCT116 cells; experiment: flow cytometric analysis of DCLK1+ cells; assay type: cell-based; conditions: flow cytometry
[2] = test system: HCT116 cells; experiment: colony formation, HCT116; assay type: cell-based
[3] = test system: Notch-1, Jagged-1, Hes-1; experiment: Notch signaling-related proteins; assay type: cell-based; conditions: two colon cancer cells
Text: Notch signaling also plays a fundamental role in the differentiation and maintenance of stem cells. […] We next determined the effect of THB or THBCD on Notch signaling-related proteins in the two colon cancer cells.

[4] = target: T1, DCLK1 (Homo sapiens, UniProt O15075); experiment: in vitro kinase assay using recombinant DCLK1; assay type: biochemical; conditions: recombinant DCLK1, dose dependent
T1 construct: we performed an in vitro kinase assay using recombinant DCLK1
T1 sequence (O15075 whole entry): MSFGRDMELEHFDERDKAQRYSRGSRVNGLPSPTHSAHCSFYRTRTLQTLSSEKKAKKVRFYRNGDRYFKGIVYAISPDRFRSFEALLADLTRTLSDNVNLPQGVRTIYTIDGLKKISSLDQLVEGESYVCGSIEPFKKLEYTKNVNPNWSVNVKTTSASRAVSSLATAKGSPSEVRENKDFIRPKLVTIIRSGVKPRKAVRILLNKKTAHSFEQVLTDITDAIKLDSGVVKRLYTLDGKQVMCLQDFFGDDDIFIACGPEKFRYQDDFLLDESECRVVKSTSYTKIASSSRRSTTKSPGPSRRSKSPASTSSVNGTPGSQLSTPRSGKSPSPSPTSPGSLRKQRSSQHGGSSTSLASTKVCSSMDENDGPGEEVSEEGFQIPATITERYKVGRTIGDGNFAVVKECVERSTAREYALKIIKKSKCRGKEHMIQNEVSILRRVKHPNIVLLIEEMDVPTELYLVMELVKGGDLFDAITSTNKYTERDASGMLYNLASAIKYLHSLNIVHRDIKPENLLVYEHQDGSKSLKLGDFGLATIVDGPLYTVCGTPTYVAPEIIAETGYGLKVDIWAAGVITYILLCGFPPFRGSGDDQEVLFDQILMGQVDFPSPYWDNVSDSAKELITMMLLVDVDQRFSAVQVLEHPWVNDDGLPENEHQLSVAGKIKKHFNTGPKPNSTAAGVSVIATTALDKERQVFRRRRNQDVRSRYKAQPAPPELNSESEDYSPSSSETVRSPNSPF
Text: DCLK1 encodes a calmodulin-like kinase domain, and has homology to calmodulin kinases CAMKII and CAMKIV. We performed homology modeling and determined that THB can interact with the kinase domain with binding energy of −5.94. Furthermore we performed an in vitro kinase assay using recombinant DCLK1. […] Furthermore, THB and THBCD inhibit cancer stem cell marker DCLK1 expression in the xenograft tumors in both immunohistochemistry and western blot analysis (data not shown).

[5] = test system: PanC-1 pancreatic cancer cells; experiment: hexoseaminidase cell proliferation assay, PanC-1; assay type: cell-based
Description: (§1) Using hexoseaminidase assay, we determined the effect of the compounds on cell proliferation. […] The IC50 value at 48 hours is below 10 μM in all the cancer cell lines.
(§2) Using hexoseaminidase assay, we determined the effect of the compounds on cell proliferation. […] The MRL16 IC50 value at 48 hours is below 0.3 μM in Colon cancer cell lines. […] Overall, the analogs can be used as chemotherapeutic agents against colon and pancreatic cancer.

[6] = test system: SW480 cells; experiment: colony formation, SW480; assay type: cell-based
[7] = test system: colon, pancreatic and bladder cancer cells; experiment: hexoseaminidase cell proliferation assay, summaries over cell lines; assay type: cell-based; conditions: dose and time dependent
Description: Water solubility studies were performed with the CD/analog complexes. […] The observed IC50 value of THBCD at 48 h is below 10 μM in all the colon, pancreatic and bladder cancer cells.
as §1, §2

[8] = target: CAMKIV (Homo sapiens, UniProt Q16566); experiment: kinase activity against CAMKIV; assay type: biochemical
Sequence of CAMKIV (Q16566 whole entry, species assumed): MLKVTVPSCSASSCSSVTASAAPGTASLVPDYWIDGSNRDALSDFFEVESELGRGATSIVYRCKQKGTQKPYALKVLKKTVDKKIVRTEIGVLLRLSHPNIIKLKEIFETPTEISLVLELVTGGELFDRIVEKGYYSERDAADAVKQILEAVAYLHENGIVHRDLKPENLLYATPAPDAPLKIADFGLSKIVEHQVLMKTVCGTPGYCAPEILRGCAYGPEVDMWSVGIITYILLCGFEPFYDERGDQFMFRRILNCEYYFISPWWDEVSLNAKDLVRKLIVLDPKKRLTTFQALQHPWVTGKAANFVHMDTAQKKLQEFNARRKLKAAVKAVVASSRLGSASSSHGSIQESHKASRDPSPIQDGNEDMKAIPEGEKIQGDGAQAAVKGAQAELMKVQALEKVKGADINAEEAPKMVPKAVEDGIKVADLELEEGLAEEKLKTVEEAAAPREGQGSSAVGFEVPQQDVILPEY

[9] = test system: Mst1/2, Lats1/2, YAP1, TEAD1, 2, and 4; experiment: Hippo signaling-related proteins; assay type: cell-based; conditions: HCT116 and SW480 cell lines
Text: The Hippo pathway regulates stem cell proliferation, self-renewal, and differentiation. YAP1 is highly expressed gene in stem cells. […] We next determined the effect of THB or THBCD on Hippo signaling-related proteins in the two colon cancer cells.

[10] = test system: KU7 bladder cancer cells; experiment: hexoseaminidase cell proliferation assay, KU7; assay type: cell-based
Description: as §1

[11] = test system: HCT116 colon cancer tumor xenografts; experiment: HCT116 colon cancer tumor xenografts in nude mice; assay type: in vivo
Description: (§3) For in vivo, HCT116 cells were injected into the blanks of nude mice, after one week when there was a palpable tumor and these compounds were injected intraperitonially (5 mg/kg body weight) every day for 21 days. Tumor volumes were measured weekly. On 29th day mice were euthanized and the tumors were removed and weighed for use in histology, immunohistochemistry, and gene expression studies. Both THB and THBCD inhibited growth of the tumor. It is noted that the images of FIG. 4C are from left to right: control; THB; and THBCD.
as §3, with “DBQ” for “Both THB and THBCD”, “inhibited the” for “inhibited”, “16C” for “4C”, “control;” for “control; THB;”, “DBQ.” for “THBCD.”
FIGS. 19A and 19B show MRL 16 inhibits tumor growth, such as on colon cancer tumor xenografts. For in vivo, HCT116 cells were injected into the blanks of nude mice, after one week when there was a palpable tumor and these compounds were injected intraperitonially (2 mg/kg body weight) every day for 21 days. Tumor volumes were measured weekly. On 29th day mice were euthanized and the tumors were removed and weighed. MRL16 inhibited growth of the tumor.

[12] = test system: DCLK1, LGR5 and CD44; experiment: stem cell marker protein expression; assay type: cell-based; conditions: HCT116 and SW480 cells
Description: The analogs were also tested with doublecortin and CaM kinase-like-1 (DCLK1), a microtubule-associated kinase expressed in postmitotic neurons and is an intestinal stem cell marker that is expressed in colon adenocarcinoma. DCLK1 distinguishes between tumor and normal stem cells in the intestine and could be a therapeutic target for colon cancer.

[13] = test system: SW480 colon cancer cells; experiment: hexoseaminidase cell proliferation assay, SW480; assay type: cell-based
Text: Using hexoseaminidase assay, we determined the effect of the compounds on cell proliferation. […]
Using hexoseaminidase assay, we determined the effect of the compounds on cell proliferation. […] […] […] Overall, the analogs can be used as chemotherapeutic agents against colon and pancreatic cancer.

[14] = test system: CAMKII; experiment: kinase activity against CAMKII; assay type: biochemical
[15] = test system: HCT116 cells; experiment: cell cycle analysis, HCT116; assay type: cell-based; conditions: HCT116, Table 3
[16] = intraperitoneal 5 mg/kg body weight every day for 21 days

O=C(N/N=C/c1ccc(O)c(O)c1O)c1cc2ccccc2cc1O [MRL THB]
DCLK1+ cells [1]: significant decrease | colony formation [2]: significantly inhibited colony formation | Hes-1 expression [3]: reduced expression | Notch-1 and Jagged-1 [3]: downregulated | DCLK1 kinase activity [4]: significantly reduced | IC50 ([5]; PanC-1, 24 h): > 50 µM | IC50 ([5]; PanC-1, 48 h): 10 µM | IC50 ([5]; PanC-1, 72 h): 8 µM | colony formation [6]: significantly inhibited colony formation | inhibition of cell proliferation (in words) [7]: potent inhibitor; also recorded: inhibit proliferation | fold less activity against CAMKIV than DCLK1 [8]: 100 fold | expression of TEAD1, 2, and 4 [9]: significant downregulation | phosphorylation of Mst1/2, Lats1/2 and YAP1 [9]: significantly downregulated | IC50 ([10]; KU7, 24 h): 22 µM | IC50 ([10]; KU7, 48 h): 8 µM | IC50 ([10]; KU7, 72 h): 6 µM | tumor volume [11, 16]: significantly reduced | tumor weight [11, 16]: significantly reduced | phosphorylation of Akt ([11]; tumor tissues): significantly reduced | COX-2, VEGF and cyclin D1 expression ([11]; tumor xenograft tissues, immunohistochemistry and western blot): significantly reduced | angiogenesis by CD31 staining ([11]; xenograft tumor tissues, immunohistochemistry): inhibit | DCLK1 expression ([11]; xenograft tumors, immunohistochemistry and western blot): inhibit | DCLK1, LGR5 and CD44 expression [12]: significantly inhibited | IC50 ([13]; SW480, 24 h): > 50 µM | IC50 ([13]; SW480, 48 h): 10 µM | IC50 ([13]; SW480, 72 h): 10 µM | IC50 ([13]; SW480, 72 h, listed as THB): 9 µM | fold less activity against CAMKII than DCLK1 [14]: 100 fold | G0/G1 (%) [15]: 17.2% | G2M (%) [15]: 19.7% | S (%) [15]: 28.1% | SubG0 Dead Cells (%) [15]: 29.0%
